Tests used:
Type in all cases: cell-based
K562-αvβ5 (Vitronectin) = target: T1, K562-αvβ5 (Vitronectin) (Homo sapiens, UniProt P06756+P18084); assay: Cell Adhesion Assay αvβ5; conditions: K562-αvβ5 cells, ligand Vitronectin, 2 mM MgCl2, BCECF-AM fluorescence; read-out: mean affinity (pIC50) αvβ5 (converted)
T1 construct: expressed in transfected cells; host or cells: K562
Experimental: (§1) The divalent cation used to facilitate adhesion was 2 mM MgCl2. Adhesion was quantified by cell labelling with the fluorescent dye BCECF-AM (Life Technologies), where cell suspensions at 3×10^6 cells/mL were incubated with 0.33 mL/mL of 30 mM BCECF-AM at 37° C. for 10 minutes, before dispensing into the assay plate. At the assay conclusion cells that adhered were lysed using 50 μL/well of 0.5% Triton X-100 in H2O to release fluorescence. Fluorescence intensity was detected using an Envision® plate reader (Perkin Elmer).

K562-αvβ3 (LAP-b1) = target: T2, K562-αvβ3 (LAP-b1) (Homo sapiens, UniProt P05106+P06756); assay: Cell Adhesion Assay αvβ3; conditions: K562-αvβ3 cells, ligand LAP-b1, 2 mM MgCl2, BCECF-AM fluorescence; read-out: mean affinity (pIC50) αvβ3 (converted)
T2 construct: expressed in transfected cells; host or cells: K562
T2 sequence (P06756 31-889 limits assumed): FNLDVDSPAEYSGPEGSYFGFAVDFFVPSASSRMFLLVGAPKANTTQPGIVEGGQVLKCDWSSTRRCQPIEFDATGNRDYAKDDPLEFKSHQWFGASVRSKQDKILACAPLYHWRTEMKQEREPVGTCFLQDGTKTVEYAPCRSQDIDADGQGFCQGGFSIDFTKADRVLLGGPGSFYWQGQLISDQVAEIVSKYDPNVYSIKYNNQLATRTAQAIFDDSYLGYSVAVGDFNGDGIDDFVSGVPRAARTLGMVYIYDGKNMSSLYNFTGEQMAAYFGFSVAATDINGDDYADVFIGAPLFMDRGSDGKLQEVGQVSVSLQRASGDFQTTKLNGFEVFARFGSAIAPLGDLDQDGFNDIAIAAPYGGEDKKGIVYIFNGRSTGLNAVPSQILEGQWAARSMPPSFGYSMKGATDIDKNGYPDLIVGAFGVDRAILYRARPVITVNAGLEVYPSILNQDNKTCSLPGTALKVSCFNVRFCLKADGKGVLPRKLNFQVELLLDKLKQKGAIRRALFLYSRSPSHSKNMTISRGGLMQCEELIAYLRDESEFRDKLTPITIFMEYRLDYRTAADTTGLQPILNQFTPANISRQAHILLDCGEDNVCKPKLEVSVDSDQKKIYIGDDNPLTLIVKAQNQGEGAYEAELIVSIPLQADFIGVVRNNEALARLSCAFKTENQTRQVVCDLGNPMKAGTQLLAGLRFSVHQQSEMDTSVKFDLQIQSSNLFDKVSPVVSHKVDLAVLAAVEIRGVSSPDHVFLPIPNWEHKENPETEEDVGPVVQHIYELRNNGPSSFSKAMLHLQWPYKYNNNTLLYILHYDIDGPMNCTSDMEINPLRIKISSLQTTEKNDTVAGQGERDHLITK
T2 sequence (P06756 891-1048 limits assumed): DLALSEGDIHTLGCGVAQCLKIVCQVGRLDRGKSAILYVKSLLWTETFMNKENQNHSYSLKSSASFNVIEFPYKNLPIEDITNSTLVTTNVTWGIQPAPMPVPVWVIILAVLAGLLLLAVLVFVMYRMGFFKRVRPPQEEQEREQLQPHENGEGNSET
T2 sequence (P05106 27-788): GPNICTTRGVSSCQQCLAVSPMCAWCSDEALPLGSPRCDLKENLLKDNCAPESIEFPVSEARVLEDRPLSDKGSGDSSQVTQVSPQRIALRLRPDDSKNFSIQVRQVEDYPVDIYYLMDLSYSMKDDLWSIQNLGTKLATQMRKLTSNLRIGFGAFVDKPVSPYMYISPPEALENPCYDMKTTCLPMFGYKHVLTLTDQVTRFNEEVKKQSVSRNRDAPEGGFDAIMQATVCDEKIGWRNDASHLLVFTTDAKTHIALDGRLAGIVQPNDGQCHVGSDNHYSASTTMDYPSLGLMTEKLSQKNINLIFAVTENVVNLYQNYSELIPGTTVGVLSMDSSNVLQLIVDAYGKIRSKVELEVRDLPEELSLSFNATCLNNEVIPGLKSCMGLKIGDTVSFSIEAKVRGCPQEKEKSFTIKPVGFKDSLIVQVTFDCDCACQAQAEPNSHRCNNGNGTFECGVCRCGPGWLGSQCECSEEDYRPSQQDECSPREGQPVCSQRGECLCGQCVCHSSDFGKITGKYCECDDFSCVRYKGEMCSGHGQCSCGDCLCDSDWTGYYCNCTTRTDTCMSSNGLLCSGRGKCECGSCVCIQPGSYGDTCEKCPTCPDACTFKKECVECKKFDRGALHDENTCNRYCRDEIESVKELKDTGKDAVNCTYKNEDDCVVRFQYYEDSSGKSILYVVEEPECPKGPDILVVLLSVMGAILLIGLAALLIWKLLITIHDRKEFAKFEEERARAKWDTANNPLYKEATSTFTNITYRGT
Experimental: as §1

K562-αvβ8 (LAP-b1) = target: T3, K562-αvβ8 (LAP-b1) (Homo sapiens, UniProt P06756+P26012); assay: Cell Adhesion Assay αvβ8; conditions: K562-αvβ8 cells, ligand LAP-b1, 2 mM MgCl2, BCECF-AM fluorescence; read-out: mean affinity (pIC50) αvβ8 (converted)
T3 construct: expressed in transfected cells; host or cells: K562
T3 sequence (P06756 31-889 limits assumed): as the sequence (P06756 31-889 limits assumed) above
T3 sequence (P06756 891-1048 limits assumed): as the sequence (P06756 891-1048 limits assumed) above
T3 sequence (P26012 43-769): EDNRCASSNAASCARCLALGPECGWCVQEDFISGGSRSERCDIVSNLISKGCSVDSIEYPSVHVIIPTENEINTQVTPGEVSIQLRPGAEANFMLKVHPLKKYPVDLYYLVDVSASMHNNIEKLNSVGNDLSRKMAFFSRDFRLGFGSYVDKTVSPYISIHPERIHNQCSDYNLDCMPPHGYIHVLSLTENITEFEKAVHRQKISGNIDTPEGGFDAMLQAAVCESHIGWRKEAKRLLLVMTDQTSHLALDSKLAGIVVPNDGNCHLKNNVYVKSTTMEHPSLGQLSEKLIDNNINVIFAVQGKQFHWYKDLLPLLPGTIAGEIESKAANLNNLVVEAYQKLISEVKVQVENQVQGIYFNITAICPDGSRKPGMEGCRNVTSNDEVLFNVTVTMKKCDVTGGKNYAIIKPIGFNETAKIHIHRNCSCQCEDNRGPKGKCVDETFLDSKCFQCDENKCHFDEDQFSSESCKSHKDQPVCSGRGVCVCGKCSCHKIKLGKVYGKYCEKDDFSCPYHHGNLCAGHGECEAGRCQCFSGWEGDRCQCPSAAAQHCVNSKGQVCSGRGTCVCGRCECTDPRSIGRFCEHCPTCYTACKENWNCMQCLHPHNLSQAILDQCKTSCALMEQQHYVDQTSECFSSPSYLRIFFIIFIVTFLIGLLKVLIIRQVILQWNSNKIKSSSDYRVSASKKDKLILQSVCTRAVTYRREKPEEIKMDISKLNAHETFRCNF
Experimental: as §1

K562-αvβ6 (LAP-b1) = target: T4, K562-αvβ6 (LAP-b1) (Homo sapiens, UniProt P06756+P18564); assay: Cell Adhesion Assay αvβ6; conditions: K562-αvβ6 cells, ligand LAP-b1, 2 mM MgCl2, BCECF-AM fluorescence; read-out: mean affinity (pIC50) αvβ6 (converted)
T4 construct: expressed in transfected cells; host or cells: K562
T4 sequence (P06756 31-889 limits assumed): as the sequence (P06756 31-889 limits assumed) above
T4 sequence (P06756 891-1048 limits assumed): as the sequence (P06756 891-1048 limits assumed) above
T4 sequence (P18564 22-788): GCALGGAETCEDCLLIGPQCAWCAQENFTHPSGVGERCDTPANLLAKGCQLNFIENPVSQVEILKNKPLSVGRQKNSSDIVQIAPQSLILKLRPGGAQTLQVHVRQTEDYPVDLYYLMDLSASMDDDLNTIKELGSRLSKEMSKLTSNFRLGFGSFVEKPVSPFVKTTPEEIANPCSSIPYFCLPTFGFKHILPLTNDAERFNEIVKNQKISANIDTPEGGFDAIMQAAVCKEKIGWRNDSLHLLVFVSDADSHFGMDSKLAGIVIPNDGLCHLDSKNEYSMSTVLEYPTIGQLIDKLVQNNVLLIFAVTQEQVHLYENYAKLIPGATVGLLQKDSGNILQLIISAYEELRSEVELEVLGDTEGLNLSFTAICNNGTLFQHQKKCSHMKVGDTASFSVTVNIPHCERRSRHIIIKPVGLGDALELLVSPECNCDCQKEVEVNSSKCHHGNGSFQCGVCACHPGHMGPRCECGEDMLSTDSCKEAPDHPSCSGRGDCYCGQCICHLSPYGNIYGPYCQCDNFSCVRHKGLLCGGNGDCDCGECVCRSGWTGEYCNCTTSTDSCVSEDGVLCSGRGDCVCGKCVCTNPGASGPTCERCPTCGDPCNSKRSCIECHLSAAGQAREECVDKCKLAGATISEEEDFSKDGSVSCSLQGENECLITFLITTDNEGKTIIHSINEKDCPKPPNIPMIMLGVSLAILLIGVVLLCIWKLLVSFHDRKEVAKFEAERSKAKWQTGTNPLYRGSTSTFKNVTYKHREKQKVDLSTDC
Experimental: as §1

αvβ1 = αvβ1 (Homo sapiens, UniProt P05556+P06756); assay: Cell Adhesion Assay αvβ1; conditions: cell line and ligand for αvβ1 not listed in method, read-out: mean affinity (pIC50) αvβ1 (converted)

T1 sequence (P06756 31-889 limits assumed): as the sequence (P06756 31-889 limits assumed) above
T1 sequence (P06756 891-1048 limits assumed): as the sequence (P06756 891-1048 limits assumed) above
T1 sequence (P18084 24-799): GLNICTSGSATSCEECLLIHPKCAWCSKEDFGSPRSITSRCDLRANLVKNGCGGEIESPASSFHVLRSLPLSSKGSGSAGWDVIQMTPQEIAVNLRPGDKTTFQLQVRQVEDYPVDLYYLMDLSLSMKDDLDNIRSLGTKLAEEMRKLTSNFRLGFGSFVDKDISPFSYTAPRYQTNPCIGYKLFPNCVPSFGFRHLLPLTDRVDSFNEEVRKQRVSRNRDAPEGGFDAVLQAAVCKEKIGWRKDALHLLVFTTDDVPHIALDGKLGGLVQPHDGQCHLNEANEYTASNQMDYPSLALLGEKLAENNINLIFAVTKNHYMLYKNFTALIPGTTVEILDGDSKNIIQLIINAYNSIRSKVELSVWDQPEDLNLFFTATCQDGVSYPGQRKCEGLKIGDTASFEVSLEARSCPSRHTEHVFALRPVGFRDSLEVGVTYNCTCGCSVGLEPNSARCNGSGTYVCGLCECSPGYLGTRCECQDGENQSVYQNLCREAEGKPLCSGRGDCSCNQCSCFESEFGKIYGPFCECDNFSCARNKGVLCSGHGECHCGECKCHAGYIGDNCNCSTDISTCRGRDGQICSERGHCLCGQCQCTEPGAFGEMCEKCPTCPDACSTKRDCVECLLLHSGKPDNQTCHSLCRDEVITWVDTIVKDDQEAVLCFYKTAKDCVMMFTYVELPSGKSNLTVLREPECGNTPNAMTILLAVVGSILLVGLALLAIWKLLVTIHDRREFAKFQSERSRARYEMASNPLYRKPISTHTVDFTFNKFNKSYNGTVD

| Compound | IC50 (K562-αvβ5 (Vitronectin)) [nM] | IC50 (K562-αvβ3 (LAP-b1)) [nM] | IC50 (K562-αvβ8 (LAP-b1)) [nM] | IC50 (K562-αvβ6 (LAP-b1)) [nM] | IC50 (αvβ1) [nM] |
| --- | --- | --- | --- | --- | --- |
| Cc1ccn(-c2cc(C(CC(=O)O)CN3CC[C@@H](CCc4ccc5c(n4)NCCC5)C3)cc(N3CCOCC3)c2)n1 (mixture of isomers) [Example 4, 3-(3-(3-methyl-1H-pyrazol-1-yl)-5-morpholinophenyl)-4-((R)-3-(2-(5,6,7,8-tetrahydro-1,8-naphthyridin-2-yl)ethyl)pyrrolidin-1-yl)butanoic acid] | 158 | 6310 | 31.6 | – | – |
| O=C(O)C[C@H](CN1CC[C@@H](CCc2ccc3c(n2)NCCC3)C1)c1cc(-c2ccn[nH]2)cc(N2CCOCC2)c1 [Example 6, (S)-3-(3-Morpholino-5-(1H-pyrazol-5-yl)phenyl)-4-((R)-3-(2-(5,6,7,8-tetrahydro-1,8-naphthyridin-2-yl)ethyl)pyrrolidin-1-yl)butanoic acid] | 50.1 | 1260 | 7.94 | 3.16 | 10 |
| O=C(O)C[C@H](CN1CC[C@@H](CCc2ccc3c(n2)NCCC3)C1)c1cc(-c2cn[nH]c2)cc(N2CCOCC2)c1 [Example 8, (S)-3-(3-Morpholino-5-(1H-pyrazol-4-yl)phenyl)-4-((R)-3-(2-(5,6,7,8-tetrahydro-1,8-naphthyridin-2-yl)ethyl)pyrrolidin-1-yl)butanoic acid] | 63.1 | 3980 | 5.01 | 5.01 | – |

The remaining lines, values ahead:

| IC50 (K562-αvβ5 (Vitronectin)) [nM] | IC50 (K562-αvβ3 (LAP-b1)) [nM] | IC50 (K562-αvβ8 (LAP-b1)) [nM] | IC50 (K562-αvβ6 (LAP-b1)) [nM] | IC50 (αvβ1) [nM] | Compound |
| --- | --- | --- | --- | --- | --- |
| 200 | 2000 | 25.1 | 10 | – | Cc1cc(-c2cc([C@H](CC(=O)O)CN3CC[C@@H](CCc4ccc5c(n4)NCCC5)C3)cc(N3CCOCC3)c2)[nH]n1 [Example 7, (S)-3-(3-(3-Methyl-1H-pyrazol-5-yl)-5-morpholinophenyl)-4-((R)-3-(2-(5,6,7,8-tetrahydro-1,8-naphthyridin-2-yl)ethyl)pyrrolidin-1-yl)butanoic acid] |
| 200 | 3980 | 15.8 | 3.16 | 50.1 | O=C(O)C[C@H](CN1CC[C@@H](CCc2ccc3c(n2)NCCC3)C1)c1cc(N2CCOCC2)cc(-n2cccn2)c1 [Example 3, (S)-3-(3-morpholino-5-(1H-pyrazol-1-yl)phenyl)-4-((R)-3-(2-(5,6,7,8-tetrahydro-1,8-naphthyridin-2-yl)ethyl)pyrrolidin-1-yl)butanoic acid] |

From patent US10004724B2, “Compounds alpha v beta 6 integrin antagonists” (GlaxoSmithKline Intellectual Property Development Limited, priority 2014, dated 2018)
